Results from the supplement of paper PMC10307832.

Legend:
Assay in all cases: relative viability (nuclei count vs DMSO), 5 days (fraction); higher = more cells survive
Everolimus + Crizotinib = compound: CO[C@H]1C[C@@H]2CC[C@@H](C)[C@@](O)(O2)C(=O)C(=O)N2CCCC[C@H]2C(=O)O[C@H]([C@H](C)C[C@@H]2CC[C@@H](OCCO)[C@H](OC)C2)CC(=O)[C@H](C)/C=C(\C)[C@@H](O)[C@@H](OC)C(=O)[C@H](C)C[C@H](C)/C=C/C=C/C=C/1C [Everolimus] + C[C@@H](Oc1cc(-c2cnn(C3CCNCC3)c2)cnc1N)c1c(Cl)ccc(F)c1Cl [Crizotinib] (partner 1 µM)
Summary of the method: (§1)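 Relative viability equals treated-well nuclei counts divided by vehicle-well nuclei counts. Counts came from 4× images of lung cancer cell lines grown in 1536-well plates for 5 days after pin-tool dosing on the day after seeding. Dosing used one drug alone or a fixed anchor-drug dose plus five library-drug doses (not always all listed) in √10 steps, and values are medians of duplicate plates.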

Everolimus + AZD7762 = compound: CO[C@H]1C[C@@H]2CC[C@@H](C)[C@@](O)(O2)C(=O)C(=O)N2CCCC[C@H]2C(=O)O[C@H]([C@H](C)C[C@@H]2CC[C@@H](OCCO)[C@H](OC)C2)CC(=O)[C@H](C)/C=C(\C)[C@@H](O)[C@@H](OC)C(=O)[C@H](C)C[C@H](C)/C=C/C=C/C=C/1C [Everolimus] + NC(=O)Nc1cc(-c2cccc(F)c2)sc1C(=O)N[C@H]1CCCNC1 [AZD7762] (partner 0.2 µM)
Summary of the method: as §1

Everolimus + Vorinostat = compound: CO[C@H]1C[C@@H]2CC[C@@H](C)[C@@](O)(O2)C(=O)C(=O)N2CCCC[C@H]2C(=O)O[C@H]([C@H](C)C[C@@H]2CC[C@@H](OCCO)[C@H](OC)C2)CC(=O)[C@H](C)/C=C(\C)[C@@H](O)[C@@H](OC)C(=O)[C@H](C)C[C@H](C)/C=C/C=C/C=C/1C [Everolimus] + O=C(CCCCCCC(=O)Nc1ccccc1)NO [Vorinostat] (partner 1 µM)
Summary of the method: as §1

Everolimus + Palbociclib = compound: CO[C@H]1C[C@@H]2CC[C@@H](C)[C@@](O)(O2)C(=O)C(=O)N2CCCC[C@H]2C(=O)O[C@H]([C@H](C)C[C@@H]2CC[C@@H](OCCO)[C@H](OC)C2)CC(=O)[C@H](C)/C=C(\C)[C@@H](O)[C@@H](OC)C(=O)[C@H](C)C[C@H](C)/C=C/C=C/C=C/1C [Everolimus] + CC(=O)c1c(C)c2cnc(Nc3ccc(N4CCNCC4)cn3)nc2n(C2CCCC2)c1=O [Palbociclib] (partner 0.5 µM)
Summary of the method: as §1

| Cell Line | relative viability (Everolimus + Crizotinib; first compound 0.01 µM) | relative viability (Everolimus + Crizotinib; first compound 0.03162 µM) | relative viability (Everolimus + Crizotinib; first compound 0.1 µM) | relative viability (Everolimus + Crizotinib; first compound 0.3162 µM) | relative viability (Everolimus + Crizotinib; first compound 1 µM) | relative viability (Everolimus + AZD7762; first compound 0.01 µM) | relative viability (Everolimus + AZD7762; first compound 0.03162 µM) | relative viability (Everolimus + AZD7762; first compound 0.1 µM) | relative viability (Everolimus + AZD7762; first compound 0.3162 µM) | relative viability (Everolimus + AZD7762; first compound 1 µM) | relative viability (Everolimus + Vorinostat; first compound 0.01 µM) | relative viability (Everolimus + Vorinostat; first compound 0.03162 µM) | relative viability (Everolimus + Vorinostat; first compound 0.1 µM) | relative viability (Everolimus + Vorinostat; first compound 0.3162 µM) | relative viability (Everolimus + Vorinostat; first compound 1 µM) | relative viability (Everolimus + Palbociclib; first compound 0.01 µM) | relative viability (Everolimus + Palbociclib; first compound 0.03162 µM) | relative viability (Everolimus + Palbociclib; first compound 0.1 µM) | relative viability (Everolimus + Palbociclib; first compound 0.3162 µM) | relative viability (Everolimus + Palbociclib; first compound 1 µM) |
| --- | --- | --- | --- | --- | --- | --- | --- | --- | --- | --- | --- | --- | --- | --- | --- | --- | --- | --- | --- | --- |
| NCI-H596 | 0.677 | 0.65 | 0.631 | 0.619 | 0.683 | 0.945 | 0.726 | 0.609 | 0.665 | 0.674 | 0.505 | 0.741 | 0.414 | 0.421 | 0.419 |  |  |  |  |  |
| NCI-H661 | 1.1 | 1.07 | 0.977 | 0.837 | 0.814 |  |  |  |  |  | 0.607 | 0.687 | 0.671 | 0.678 | 0.555 | 0.334 | 0.321 | 0.328 | 0.31 | 0.295 |
| NCI-H1299 | 0.953 | 0.967 | 0.968 | 0.936 | 1.09 |  |  |  |  |  |  |  |  |  |  |  |  |  |  |  |
| NCI-H1395 |  |  |  |  |  | 0.394 | 0.374 | 0.335 | 0.405 | 0.339 | 0.549 | 0.33 | 0.505 | 0.478 | 0.58 | 0.482 | 0.444 | 0.466 | 0.515 | 0.429 |
| NCI-H1563 | 0.673 | 0.654 | 0.682 | 0.684 | 0.692 |  |  |  |  |  |  |  |  |  |  |  |  |  |  |  |
| NCI-H1648 |  |  |  |  |  | 0.622 | 0.634 | 0.631 | 0.735 | 1.02 | 0.422 | 0.383 | 0.307 | 0.423 | 0.406 | 0.257 | 0.21 | 0.259 | 0.22 | 0.222 |
| NCI-H1650 | 0.922 | 1.06 | 0.918 | 1 | 0.719 |  |  |  |  |  | 0.396 | 0.388 | 0.29 | 0.365 | 0.383 | 0.305 | 0.293 | 0.304 | 0.278 | 0.238 |
| NCI-H1703 | 0.344 | 0.316 | 0.276 | 0.395 | 0.454 |  |  |  | 0.132 | 0.121 |  |  |  |  |  |  |  |  |  |  |
| NCI-H1792 | 0.865 | 0.769 | 0.724 | 0.583 | 0.644 | 0.312 | 0.312 | 0.304 | 0.185 | 0.262 |  |  |  |  |  | 0.776 | 0.518 | 0.448 | 0.464 | 0.376 |
| NCI-H1793 |  |  |  |  |  | 0.242 | 0.244 | 0.259 | 0.21 | 0.197 | 0.344 | 0.288 | 0.322 | 0.356 | 0.251 | 0.219 | 0.19 | 0.246 | 0.214 | 0.166 |
| NCI-H2009 | 0.693 | 0.856 | 0.612 | 0.646 | 0.763 |  |  |  |  |  | 0.563 | 0.611 | 0.54 | 0.54 | 0.503 | 0.105 | 0.109 | 0.103 | 0.127 | 0.108 |
| NCI-H2023 | 0.433 | 0.388 | 0.368 | 0.395 | 0.312 |  |  |  |  |  | 0.496 | 0.441 | 0.341 | 0.372 | 0.379 | 0.176 | 0.139 | 0.151 | 0.129 | 0.129 |
| NCI-H2228 | 0.331 | 0.254 | 0.281 | 0.303 | 0.328 |  |  |  |  |  | 0.536 | 0.342 | 0.458 | 0.436 | 0.336 | 0.597 | 0.403 | 0.337 | 0.408 | 0.339 |
| NCI-H2342 |  |  |  |  |  | 0.394 | 0.331 | 0.382 | 0.376 | 0.461 | 0.559 | 0.438 | 0.524 | 0.56 | 0.633 | 0.48 | 0.407 | 0.493 | 0.44 | 0.463 |
| SK-LU-1 | 0.478 | 0.511 | 0.572 | 0.544 | 0.626 |  |  |  |  |  | 0.52 | 0.52 | 0.587 | 0.538 | 0.527 | 0.444 | 0.342 | 0.303 | 0.318 | 0.298 |
| SK-MES-1 | 0.871 | 0.689 | 0.689 | 0.644 | 0.608 |  |  |  |  |  | 0.897 | 1 | 1 | 0.887 | 0.743 | 0.239 | 0.264 | 0.258 | 0.273 | 0.243 |
| SW 900 |  |  |  |  |  | 0.362 | 0.33 | 0.285 | 0.36 | 0.427 | 0.41 | 0.301 | 0.339 | 0.37 | 0.266 | 0.445 | 0.331 | 0.406 | 0.383 | 0.318 |
| SW 1573 | 0.593 | 0.521 | 0.53 | 0.383 | 0.427 |  |  |  |  |  | 0.373 | 0.452 | 0.465 | 0.458 | 0.478 | 0.237 | 0.201 | 0.175 | 0.224 | 0.225 |
| UMC-11 | 0.271 | 0.244 | 0.239 | 0.249 | 0.286 |  |  |  |  |  | 0.213 | 0.196 | 0.19 | 0.187 | 0.213 | 0.261 | 0.262 | 0.282 | 0.3 | 0.272 |
